For one test, the system named is C2C12 muscle cells. The test is described as follows: Analysis of glucose absorption (2-deoxyglucose) in differentiated C2C12 muscle cells. To be noted: test materials 10 μM, times relative to control group. It is filed as cell-based. The method in brief:
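Uptake of 0.2 μCi 2-deoxyglucose over 20 min, counted radiometrically in lysed cells. Before tracer, compounds (10 μM) were applied for 30 min to C2C12 cells differentiated 6 days in 1% serum and equilibrated 3 h in 5 mM glucose KRB.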

The test system of another test is AMPK. The test is described as follows: Measurement of AMPK activity by Western blot in C2C12 cells. The following applies: 10 μM for 50 minutes; for AMPK activity (degree of phosphorylation of serine-79 and threonine-172): no superscript: Western blot of serine-79 and threonine-172 phosphorylation; for AMPK activity (class: degree of phosphorylation of threonine-172): strong/mild/weak; for AMPK activity (degree of phosphorylation of serine-79): footnote a: Western blot of serine-79 phosphorylation. It is filed as cell-based. Further details: key to AMPK activity (degree of phosphorylation of serine-79 and threonine-172): fold increase in threonine-172 phosphorylation; AMPK activity (degree of phosphorylation of serine-79): unit not given here. A digest of the protocol: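 Western blot readout of AMPK Thr-172 and ACC Ser-79 phosphorylation, normalised against ERK, served as the activity measure. Cells were C2C12 after differentiation, treated 50 minutes with 10 μM test material. Grading by Thr-172 increase: ≥3-fold strong, 1-3-fold mild, <1-fold weak.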

`CC(C)c1nc(NCc2cccc3ccccc23)c2ccccc2n1` [Compound 181, (2-Isopropylquinazolino-4-yl)-naphthaleno-1-ylmethylamine]: the Glucose absorption with C2C12 muscle cells is given as 3.1. Moreover, in the test on AMPK, the “AMPK activity (degree of phosphorylation of serine-79 and threonine-172)” value came to 3.1; the “AMPK activity (class: degree of phosphorylation of threonine-172)” value is given as “strong (“strong” means that the degree of phosphorylation of threonine-172 increased by 3 times or more)”.
In the case of `CCOc1cc2ncnc(NCCc3ccccn3)c2cc1OCC` [Compound 17, (6,7-Diethoxyquinazolino-4-yl)-(2-pyridino-2-ylethyl)-amine], the Glucose absorption in the test on C2C12 muscle cells turned out to be 1.2. Moreover, the “AMPK activity (degree of phosphorylation of serine-79)” value in the test with AMPK is 2.2^a.
`COc1cccc(CNc2nc(N3CCCCC3)nc3ccccc23)c1OC` [Compound 288, (2,3-Dimethoxybenzyl)-(2-piperidino-1-ylquinazolino-4-yl)-amine]: the Glucose absorption in the test with C2C12 muscle cells worked out at 0.8. Besides, the “AMPK activity (degree of phosphorylation of serine-79 and threonine-172)” value in the test on AMPK is 1.7.
The like results for `CCCc1nc(NCc2ccc3c(c2)OCO3)c2ccccc2n1` [Compound 396, Benzo[1,3]dioxol-5-ylmethyl-(2-propylquinazolino-4-yl)-amine] were, in that order, 1.3 and 7.3.
In the case of `CCSc1nc(NCc2cccc(C(F)(F)F)c2)c2ccccc2n1` [Compound 26, (2-Ethylsulfanylquinazolino-4-yl)-(3-trifluoromethylbenzyl)-amine], the Glucose absorption with C2C12 muscle cells stood at 1.7. The “AMPK activity (class: degree of phosphorylation of threonine-172)” value in the test with AMPK is “mild (“mild” means that the degree of phosphorylation of threonine-172 increased by 1 to 3 times)”.
In the case of `ClC(Cl)(Cl)c1nc(NCCN2CCCCC2)c2ccccc2n1` [Compound 4, (2-Piperidino-1-ylethyl)-(2-trichloromethylquinazolino-4-yl)-amine], the Glucose absorption with C2C12 muscle cells was 1.2. Also, the “AMPK activity (degree of phosphorylation of serine-79)” value in the test with AMPK is 3.5^a.
The like results for `CCCNc1nc(C(Cl)(Cl)Cl)nc2ccccc12` [Compound 7, Propyl-(2-trichloromethylquinazolino-4-yl)-amine] were, in that order, 1.5 and 4.4^a.
`CCCc1nc(NCc2ccc(OC)c(OC)c2)c2ccccc2n1` [Compound 399, (3,4-Dimethoxybenzyl)-(2-propylquinazolino-4-yl)-amine] displayed a Glucose absorption in the test with C2C12 muscle cells of 1.2. Besides, the “AMPK activity (degree of phosphorylation of serine-79 and threonine-172)” value in the test on AMPK was 4.9.
For `COc1ccccc1CNc1nc(Cc2ccccc2)nc2ccccc12` [Compound 328, (2-Benzylquinazolino-4-yl)-(2-methoxybenzyl)-amine], in that order: 1.4 and 3.8.
In the test with C2C12 muscle cells, `Clc1ccccc1CCNc1nc(-c2ccccc2)nc2ccccc12` [Compound 151, [2-(2-Chlorophenyl)-ethyl]-(2-phenylquinazolino-4-yl)-amine] came in with a Glucose absorption of 1.3. Besides, in the test on AMPK, the “AMPK activity (degree of phosphorylation of serine-79 and threonine-172)” value is on record as 1.8; the “AMPK activity (class: degree of phosphorylation of threonine-172)” value was “strong (“strong” means that the degree of phosphorylation of threonine-172 increased by 3 times or more)”.
As to `COc1cc(CNc2ncnc3ccccc23)cc(OC)c1` [Compound 409, (3,5-Dimethoxybenzyl)-quinazolino-4-ylamine], the Glucose absorption in the test on C2C12 muscle cells stood at 1.6. Further, in the test with AMPK, the “AMPK activity (degree of phosphorylation of serine-79 and threonine-172)” value worked out at 3.3.
`Cc1nc(NCCc2ccccc2)c2ccccc2n1` [Compound 167, (2-Methylquinazolino-4-yl)-phenethylamine] registered a Glucose absorption in the test on C2C12 muscle cells of 3.2. Besides, in the test with AMPK, the “AMPK activity (degree of phosphorylation of serine-79 and threonine-172)” value came out at 6.7; the “AMPK activity (class: degree of phosphorylation of threonine-172)” value was “strong (“strong” means that the degree of phosphorylation of threonine-172 increased by 3 times or more)”.
For `Cc1nc(NCc2ccccc2)c2ccccc2n1` [Compound 163, Benzyl-(2-methylquinazolino-4-yl)-amine], in that order: 2.5, 2.8 and “strong (“strong” means that the degree of phosphorylation of threonine-172 increased by 3 times or more)”.
In the test with C2C12 muscle cells, `COc1ccccc1CNc1nc(N2CCCCC2)nc2ccccc12` [Compound 276, (2-Methoxybenzyl)-(2-piperidino-1-ylquinazolino-4-yl)-amine] came in with a Glucose absorption of 0.8. Besides, in the test with AMPK, the “AMPK activity (degree of phosphorylation of serine-79 and threonine-172)” value came out at 1.9.
`c1ccc(-c2nc(NCCN3CCOCC3)c3ccccc3n2)cc1` [Compound 106, (2-Morpholino-4-ylethyl)-(2-phenylquinazolino-4-yl)-amine] gave a Glucose absorption in the test on C2C12 muscle cells of 1.8. In the test with AMPK, the “AMPK activity (degree of phosphorylation of serine-79 and threonine-172)” value is 1.3; the “AMPK activity (class: degree of phosphorylation of threonine-172)” value was “mild (“mild” means that the degree of phosphorylation of threonine-172 increased by 1 to 3 times)”.
Consider `COc1ccc(COc2nc(-c3ccccc3)nc3ccccc23)c(OC)c1` [Compound 273, 4-(2,4-Dimethoxybenzyloxy)-2-phenylquinazoline], for which the Glucose absorption in the test with C2C12 muscle cells was 0.7. Also, the “AMPK activity (degree of phosphorylation of serine-79 and threonine-172)” value in the test with AMPK was 1.5.
Take `CCSc1nc(NC(C)CC)c2ccccc2n1` (stereo not shown) [Compound 20, sec-Butyl-(2-ethylsulfanylquinazolino-4-yl)-amine]: the Glucose absorption in the test with C2C12 muscle cells came to 1.9. The “AMPK activity (class: degree of phosphorylation of threonine-172)” value in the test with AMPK is “weak (“weak” means that the degree of phosphorylation of threonine-172 increased by less than 1 time)”.
With `COc1ccc(CNc2nc(N3CCCCC3)nc3ccccc23)cc1OC` [Compound 300, (3,4-Dimethoxybenzyl)-(2-piperidino-1-ylquinazolino-4-yl)-amine], in the test on C2C12 muscle cells, the Glucose absorption came out at 0.9. Moreover, in the test with AMPK, the “AMPK activity (degree of phosphorylation of serine-79 and threonine-172)” value came to 1.0.
In the case of `COc1ccc(CNc2nc(N3CCCC3)nc3ccccc23)cc1OC` [Compound 299, (3,4-Dimethoxybenzyl)-(2-pyrrolidino-1-ylquinazolino-4-yl)-amine], in the test with C2C12 muscle cells, the Glucose absorption amounted to 0.8. For the same molecule, the “AMPK activity (degree of phosphorylation of serine-79 and threonine-172)” value with AMPK was found to be 0.6.
The molecule `OCCOCCNc1nc(-c2ccccc2)nc2ccccc12` [Compound 1, 2-[2-(2-Phenylquinazolino-4-ylamino)-ethoxy]-ethanol] returned a Glucose absorption in the test with C2C12 muscle cells of 1.7. Further, the “AMPK activity (degree of phosphorylation of serine-79)” value with AMPK is reported as 6.0^a.
Molecule `c1ccc(CCNc2nc(-c3ccccn3)nc3ccccc23)cc1` [Compound 227, Phenethyl-(2-pyridino-2-ylquinazolino-4-yl)-amine] showed a Glucose absorption in the test on C2C12 muscle cells of 1.6. In the test with AMPK, the “AMPK activity (degree of phosphorylation of serine-79 and threonine-172)” value came to 4.9; the “AMPK activity (class: degree of phosphorylation of threonine-172)” value was “strong (“strong” means that the degree of phosphorylation of threonine-172 increased by 3 times or more)”.
On to `CCSc1nc(NCCc2cccc(C(F)(F)F)c2)c2ccccc2n1` [Compound 12, (2-Ethylsulfanylquinazolino-4-yl)-[2-(3-trifluoromethyl-phenyl)ethyl]-amine], for which the Glucose absorption in the test with C2C12 muscle cells worked out at 0.8. Moreover, the “AMPK activity (degree of phosphorylation of serine-79)” value in the test on AMPK is listed as 4.0^a.
`COc1ccc(CNc2nc(Cc3ccccc3)nc3ccccc23)c(OC)c1` [Compound 272, (2-Benzylquinazolino-4-yl)-(2,4-dimethoxybenzyl)-amine] displayed a Glucose absorption with C2C12 muscle cells of 0.4. In addition, the “AMPK activity (degree of phosphorylation of serine-79 and threonine-172)” value with AMPK is reported as 3.4.

Source of the values: patent publication US20080207614A1, “QUINAZOLINE DERIVATIVES FOR THE TREATMENT AND PREVENTION OF DIABETES AND OBESITY” (SK CHEMICALS CO., LTD., priority 2004, published 2008).
